Source: publication PMC12717099, “Peptidoglycan recruitment by a penicillin binding protein” (Nature Communications, 2025)

What was measured:
Format in all cases: binding, Enterococcus faecium
PBP5:PenG complex (1:8) = assay: NMR CSP titration of stem peptides into PenG-saturated PBP5; settings: PBP5:PenG 1:8, then SP titration
Method: Data was processed using Topspin 4.1.4 (Bruker) and analyzed using NMRFAM-SPARKY 1.3 and Poky (build number 20240829)[20],[21]. The sequence-specific backbone assignment of PBP5 is publicly available at BMRBID 51690.
SPs (SP1 to SP7) were titrated into 0.5 mM (^2H,^15N)-labeled and 0.1 mM (^2H,^15N)/^13C ILV labeled PBP5 at molar ratios of 0:1, 5:1, 10:1, 20:1, 40:1, 60:1, and 80:1 (stem peptide/SP:PBP5; molar ratios). 2D [^1H,^15N] TROSY or 2D [^1H,^13C] HMQC spectra were recorded for each titration point. SPs were solubilized in NMR buffer. Chemical shift perturbations (Δδ) between PBP5 and SP bound PBP5 spectra were calculated using Eq. 1,1 Δδppm=ΔδH^2+ΔδX/Y^2 where, X is ^15N or ^13C and Y is the constant i.e., 10 for ^15N and 4 for ^13C.
Residues with significant CSPs were identified by calculating the standard deviation of all CSPs (σ), then excluding any CSPs larger than average+2σ, recalculating σ as a new corrected σ0, and then repetitively removing CSPs above 2σ0 until no additional CSPs can be removed. CSPs above ≥2σ2 was the statistical threshold for ^1H/^15N backbone CSP analysis and ≥2xσ1 for ^1H/^13C methyl ILV data for the interaction of SP1 with PBP5. The same threshold values were used for all other peptides to allow for direct comparison with the SP1/PBP5 interaction. […]

PBP5 = assay: 1D 1H STD NMR of stem peptides with PBP5; settings: for STD % to SP1: normalised to highest SP1:PBP5 value; for STD amplification factor: protein:peptide 1:100, 2 s saturation, 308 K
Description: (§1) Total saturation time for STD measurements was 2 s.
(§2) Overlapped peaks were completely excluded from the analysis.

PBP5:PenG complex = assay: 1D 1H STD NMR of stem peptides with PBP5:PenG; settings: for STD amplification factor: PenG-saturated PBP5, 2 s saturation
Description: as §1, §2

“D-Lac-L-Ala-D-iGln-L-Lys(D-iAsn)-D-Ala-D-Ala [SP1]” was tested, and the “CSPs in presence vs absence of penicillin, in words” value (PBP5:PenG complex (1:8)) was “nearly identical”, the “STD amplification factor as fraction of highest SP1:PBP5 value” (“STD amplification factor as fraction” for short) (PBP5; 1H DA4α,LA1α) was 0.3688 and the “STD % to SP1” value (PBP5; 1H DA4α,LA1α) was 36.8831%. The STD amplification factor (PBP5; 1H DA4α,LA1α) was 9.925, the “STD amplification factor as fraction” value (PBP5; 1H DA4β, DLacβ) was 0.2569 and the “STD % to SP1” value (PBP5; 1H DA4β, DLacβ) was 25.6923%. The STD amplification factor (PBP5; 1H DA4β, DLacβ) was 6.913, the “STD amplification factor as fraction” value (PBP5; 1H DA5α) was 0.6484 and the “STD % to SP1” value (PBP5; 1H DA5α) was 64.837%. The STD amplification factor (PBP5; 1H DA5α) was 17.4466, the “STD amplification factor as fraction” value (PBP5; 1H DA5β) was 0.3281 and the “STD % to SP1” value (PBP5; 1H DA5β) was 32.8081%. The STD amplification factor (PBP5; 1H DA5β) was 8.828, the “STD amplification factor as fraction” value (PBP5; 1H DQ2α,Dlacα,iNα) was 0.2333 and the “STD % to SP1” value (PBP5; 1H DQ2α,Dlacα,iNα) was 23.3322%. For the same substance, the STD amplification factor (PBP5; 1H DQ2α,Dlacα,iNα) was 6.278, the “STD amplification factor as fraction” value (PBP5; 1H DQ2β (first listed)) was 0.816 and the “STD % to SP1” value (PBP5; 1H DQ2β (first listed)) was 81.5959%. The STD amplification factor (PBP5; 1H DQ2β (first listed)) was 21.9561, the “STD amplification factor as fraction” value (PBP5; 1H DQ2β (second listed)) was 0.8819 and the “STD % to SP1” value (PBP5; 1H DQ2β (second listed)) was 88.186%. The STD amplification factor (PBP5; 1H DQ2β (second listed)) was 23.7294, the “STD amplification factor as fraction” value (PBP5; 1H DQ2γ) was 0.3832 and the “STD % to SP1” value (PBP5; 1H DQ2γ) was 38.3191%. The STD amplification factor (PBP5; 1H DQ2γ) was 10.3111, the “STD amplification factor as fraction” value (PBP5; 1H K3α) was 0.5115 and the “STD % to SP1” value (PBP5; 1H K3α) was 51.1543%. The STD amplification factor (PBP5; 1H K3α) was 13.7648, the “STD amplification factor as fraction” value (PBP5; 1H K3β) was 1 and the “STD % to SP1” value (PBP5; 1H K3β) was 100%. The STD amplification factor (PBP5; 1H K3β) was 26.9084, the “STD amplification factor as fraction” value (PBP5; 1H K3δ) was 0.7475 and the “STD % to SP1” value (PBP5; 1H K3δ) was 74.7509%. For the same substance, the STD amplification factor (PBP5; 1H K3δ) was 20.1143, the “STD amplification factor as fraction” value (PBP5; 1H K3ε) was 0.2891 and the “STD % to SP1” value (PBP5; 1H K3ε) was 28.9129%. For the same substance, the STD amplification factor (PBP5; 1H K3ε) was 7.78, the “STD amplification factor as fraction” value (PBP5; 1H LA1β) was 0.276 and the “STD % to SP1” value (PBP5; 1H LA1β) was 27.6026%. The STD amplification factor (PBP5; 1H LA1β) was 7.427, the “STD amplification factor as fraction” value (PBP5; 1H iNβ) was 0.3449 and the “STD % to SP1” value (PBP5; 1H iNβ) was 34.4916%. For the same substance, the STD amplification factor (PBP5; 1H iNβ) was 9.281, the “STD amplification factor, ref to SP1 (fraction)” value (PBP5:PenG complex; 1H DA4α,LA1α) was 0.3134 and the “STD, ref to SP1 (percent)” value (PBP5:PenG complex; 1H DA4α,LA1α) was 31.3366. The STD amplification factor (PBP5:PenG complex; 1H DA4α,LA1α) was 8.432, the “STD amplification factor, ref to SP1 (fraction)” value (PBP5:PenG complex; 1H DA4β, DLacβ) was 0.2401 and the “STD, ref to SP1 (percent)” value (PBP5:PenG complex; 1H DA4β, DLacβ) was 24.0089. For the same substance, the STD amplification factor (PBP5:PenG complex; 1H DA4β, DLacβ) was 6.4604, the “STD amplification factor, ref to SP1 (fraction)” value (PBP5:PenG complex; 1H DA5α) was 0.5713 and the “STD, ref to SP1 (percent)” value (PBP5:PenG complex; 1H DA5α) was 57.1289. The STD amplification factor (PBP5:PenG complex; 1H DA5α) was 15.3725, the “STD amplification factor, ref to SP1 (fraction)” value (PBP5:PenG complex; 1H DA5β) was 0.2936 and the “STD, ref to SP1 (percent)” value (PBP5:PenG complex; 1H DA5β) was 29.3585. For the same substance, the STD amplification factor (PBP5:PenG complex; 1H DA5β) was 7.9, the “STD amplification factor, ref to SP1 (fraction)” value (PBP5:PenG complex; 1H DQ2α,Dlacα,iNα) was 0.2074 and the “STD, ref to SP1 (percent)” value (PBP5:PenG complex; 1H DQ2α,Dlacα,iNα) was 20.7354. For the same substance, the STD amplification factor (PBP5:PenG complex; 1H DQ2α,Dlacα,iNα) was 5.58, the “STD amplification factor, ref to SP1 (fraction)” value (PBP5:PenG complex; 1H DQ2β (first listed)) was 0.7176 and the “STD, ref to SP1 (percent)” value (PBP5:PenG complex; 1H DQ2β (first listed)) was 71.7627. The STD amplification factor (PBP5:PenG complex; 1H DQ2β (first listed)) was 19.3102, the “STD amplification factor, ref to SP1 (fraction)” value (PBP5:PenG complex; 1H DQ2β (second listed)) was 0.813 and the “STD, ref to SP1 (percent)” value (PBP5:PenG complex; 1H DQ2β (second listed)) was 81.3002. The STD amplification factor (PBP5:PenG complex; 1H DQ2β (second listed)) was 21.8766, the “STD amplification factor, ref to SP1 (fraction)” value (PBP5:PenG complex; 1H DQ2γ) was 0.3426 and the “STD, ref to SP1 (percent)” value (PBP5:PenG complex; 1H DQ2γ) was 34.2606. For the same substance, the STD amplification factor (PBP5:PenG complex; 1H DQ2γ) was 9.219, the “STD amplification factor, ref to SP1 (fraction)” value (PBP5:PenG complex; 1H K3α) was 0.4115 and the “STD, ref to SP1 (percent)” value (PBP5:PenG complex; 1H K3α) was 41.1521. For the same substance, the STD amplification factor (PBP5:PenG complex; 1H K3α) was 11.0734, the “STD amplification factor, ref to SP1 (fraction)” value (PBP5:PenG complex; 1H K3β) was 0.9267 and the “STD, ref to SP1 (percent)” value (PBP5:PenG complex; 1H K3β) was 92.6679. The STD amplification factor (PBP5:PenG complex; 1H K3β) was 24.9355, the “STD amplification factor, ref to SP1 (fraction)” value (PBP5:PenG complex; 1H K3δ) was 0.5468 and the “STD, ref to SP1 (percent)” value (PBP5:PenG complex; 1H K3δ) was 54.6801. For the same substance, the STD amplification factor (PBP5:PenG complex; 1H K3δ) was 14.7135, the “STD amplification factor, ref to SP1 (fraction)” value (PBP5:PenG complex; 1H K3ε) was 0.1626 and the “STD, ref to SP1 (percent)” value (PBP5:PenG complex; 1H K3ε) was 16.2603. For the same substance, the STD amplification factor (PBP5:PenG complex; 1H K3ε) was 4.3754, the “STD amplification factor, ref to SP1 (fraction)” value (PBP5:PenG complex; 1H LA1β) was 0.2447 and the “STD, ref to SP1 (percent)” value (PBP5:PenG complex; 1H LA1β) was 24.4674. For the same substance, the STD amplification factor (PBP5:PenG complex; 1H LA1β) was 6.584, the “STD amplification factor, ref to SP1 (fraction)” value (PBP5:PenG complex; 1H iNβ) was 0.3143 and the “STD, ref to SP1 (percent)” value (PBP5:PenG complex; 1H iNβ) was 31.4336. For the same substance, the STD amplification factor (PBP5:PenG complex; 1H iNβ) was 8.458.
